US4956362A, “Use of carpipramine for the treatment of anxiety and sleep disorders” (Rhone-Poulenc Sante, a French Body Corporate, priority 1988, dated 1990)

Assays:
[1] = molecular target: T1, central serotonin receptor sites (type S2) (Rattus norvegicus, UniProt P14842); test: Affinity for central serotonin receptor sites (type S2), tritiated ketanserin binding
T1 construct: central serotonin receptor sites (type S2); from tissue; the cited Leysen 1982 method used rat prefrontal/frontal cortex, own knowledge
Procedure: The affinity of carpipramine for central serotonin receptor sites (type S2) was determined by a technique based on that of J. E. LEYSEN et al., Mol. Pharmacol. 21, 301 (1982), which consists in measuring the affinity of the product for binding sites for tritiated ketanserin. In this test, the IC50 of carpipramine is 3 nM.

[2] = tested on: mescaline-induced heat twitches; test: Antagonism of mescaline-induced heat twitches in mice; assay type: in vivo; conditions: Mus musculus, sc, subcutaneously administered, read-out: AD50 (the source's name)
Procedure: In this test, the AD50 of subcutaneously administered carpipramine is 8 mg/kg.

[3] = Acute oral toxicity in mice; conditions: mouse, in vivo, po; administered orally in mice
mice = test: Acute oral toxicity in mice; conditions: mouse, in vivo

T1 sequence (P14842 whole entry): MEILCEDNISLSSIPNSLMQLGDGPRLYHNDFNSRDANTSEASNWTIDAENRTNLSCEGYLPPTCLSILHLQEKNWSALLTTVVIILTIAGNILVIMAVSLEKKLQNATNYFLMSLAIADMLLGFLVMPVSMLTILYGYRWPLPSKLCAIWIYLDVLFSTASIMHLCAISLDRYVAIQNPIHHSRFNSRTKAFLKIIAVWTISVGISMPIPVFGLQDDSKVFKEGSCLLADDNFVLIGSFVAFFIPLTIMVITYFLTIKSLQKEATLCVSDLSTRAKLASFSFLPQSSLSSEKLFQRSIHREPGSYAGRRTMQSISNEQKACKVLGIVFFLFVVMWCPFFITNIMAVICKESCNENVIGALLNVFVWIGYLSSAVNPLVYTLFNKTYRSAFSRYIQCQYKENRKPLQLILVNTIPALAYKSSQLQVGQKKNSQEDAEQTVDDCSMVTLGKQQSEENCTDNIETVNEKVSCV

NC(=O)C1(N2CCCCC2)CCN(CCCN2c3ccccc3CCc3ccccc32)CC1 [carpipramine, 5-[3-(4-carbamoyl-4-piperidinopiperidino)-1-propyl]-10,11-dihydrodibenz[b,f]azepine]
IC50 [1]: 3 nM
ED50 [2]: 8 mg/kg
LD50 [3]: 250 mg/kg
toxicity (mice): low toxicity
